Values of other authors, collected in US20190224118A1, “ORAL GASTRORETENTIVE FORMULATIONS AND USES THEREOF” (INTEC PHARMA LTD., priority 2016, published 2019).

Row | SMILES | number of metabolites identified in urine (urine) | plasma levels of active 11-hydroxy metabolite, oral administration versus smoking (oral versus smoking)
1 | C=C(C)[C@@H]1CCC(C)=C[C@H]1c1c(O)cc(CCCCC)cc1O [CBD, cannabidiol] | more than 33 | 
2 | CCCCCc1cc(O)c2c(c1)OC(C)(C)[C@@H]1CCC(C)=C[C@@H]21 [Δ9-THC, Δ-9-tetrahydrocannabinol] |  | about three
